In ChEMBL document CHEMBL3822398, “Design, synthesis and in vitro biological evaluation of short-chain C12-sphinganine and its 1,2,3-triazole analogs as potential antimicrobial and anti-biofilm agents” (Eur J Med Chem, 2016):
≈ marks a conversion by molar mass, not a printed value. Calls of active or inactive are those of the source. The rule behind the calls is not given here.

What follows are compounds tested on Raoultella planticola (assay: Bactericidal activity against Klebsiella planticola MTCC 530 incubated for 24 hrs). Conditions: MTCC 530, 24 h.
Assay type: functional

Compound	MBC [µg/mL]
CCCCCCCCC[C@@H](O)[C@H](CO)n1cc(-c2cccc(O)c2)nn1	15.6 (≈ 43.2 µM)

What follows are compounds tested on Bacillus subtilis (assay: Antibacterial activity against Bacillus subtilis MTCC 121 incubated for 24 hrs at 37 degC by well diffusion method). Conditions: MTCC 121, 24 h.
Assay type: functional

MIC [µg/mL]	Compound
7.8 (≈ 21.6 µM)	CCCCCCCCC[C@@H](O)[C@H](CO)n1cc(-c2cccc(O)c2)nn1

The compounds below were run on Candida albicans (assay: Antifungal activity against Candida albicans MTCC 183 incubated for 24 hrs at 30 degC by well diffusion method). Conditions: MTCC 183, 24 h.
Assay type: functional

MIC [µg/mL]	Compound
7.8 (≈ 21.6 µM)	CCCCCCCCC[C@@H](O)[C@H](CO)n1cc(-c2cccc(O)c2)nn1

Each compound was assayed on Candida albicans (assay: Fungicidal activity against Candida albicans MTCC 227 incubated for 24 hrs). Conditions: MTCC 227, 24 h.
Assay type: functional

Compound	MFC [µg/mL]
CCCCCCCCC[C@@H](O)[C@H](CO)n1cc(-c2cccc(O)c2)nn1	3.9 (≈ 10.8 µM)

Each compound was assayed on Micrococcus luteus (assay: Antibacterial activity against Micrococcus luteus MTCC 2470 incubated for 24 hrs at 37 degC by well diffusion method). Conditions: MTCC 2470, 24 h.
Assay type: functional

MIC [µg/mL]	Compound
3.9 (≈ 10.8 µM)	CCCCCCCCC[C@@H](O)[C@H](CO)n1cc(-c2cccc(O)c2)nn1

Each compound was assayed on Micrococcus luteus (assay: Bactericidal activity against Micrococcus luteus MTCC 2470 incubated for 24 hrs). Conditions: MTCC 2470, 24 h.
Assay type: functional

Compound	MBC [µg/mL]
CCCCCCCCC[C@@H](O)[C@H](CO)n1cc(-c2cccc(O)c2)nn1	3.9 (≈ 10.8 µM)

What follows are compounds tested on Staphylococcus aureus (assay: Bactericidal activity against Staphylococcus aureus MLS16 MTCC 2940 incubated for 24 hrs). Conditions: MLS16 MTCC 2940, 24 h.
Assay type: functional

Compound	MBC [µg/mL]
CCCCCCCCC[C@@H](O)[C@H](CO)n1cc(-c2cccc(O)c2)nn1	15.6 (≈ 43.2 µM)

What follows are compounds tested on Candida albicans (assay: Antifungal activity against Candida albicans MTCC 3017 incubated for 24 hrs at 30 degC by well diffusion method). Conditions: MTCC 3017, 24 h.
Assay type: functional

MIC [µg/mL]	Compound
7.8 (≈ 21.6 µM)	CCCCCCCCC[C@@H](O)[C@H](CO)n1cc(-c2cccc(O)c2)nn1

What follows are compounds tested on Nakaseomyces glabratus (assay: Antifungal activity against Candida glabrata MTCC 3019 incubated for 24 hrs at 30 degC by well diffusion method). Conditions: MTCC 3019, 24 h.
Assay type: functional

MIC [µg/mL]	Compound
7.8 (≈ 21.6 µM)	CCCCCCCCC[C@@H](O)[C@H](CO)n1cc(-c2cccc(O)c2)nn1

The compounds below were run on Candida albicans (assay: Antifungal activity against Candida albicans MTCC 1637 incubated for 24 hrs at 30 degC by well diffusion method). Conditions: MTCC 1637, 24 h.
Assay type: functional

MIC [µg/mL]	Compound
15.6 (≈ 43.2 µM)	CCCCCCCCC[C@@H](O)[C@H](CO)n1cc(-c2cccc(O)c2)nn1

What follows are compounds tested on Candida albicans (assay: Fungicidal activity against Candida albicans MTCC 4748 incubated for 24 hrs). Conditions: MTCC 4748, 24 h.
Assay type: functional

Compound	MFC [µg/mL]
CCCCCCCCC[C@@H](O)[C@H](CO)n1cc(-c2cccc(O)c2)nn1	15.6 (≈ 43.2 µM)

The compounds below were run on Staphylococcus aureus (assay: Antibacterial activity against Staphylococcus aureus MTCC 96 incubated for 24 hrs at 37 degC by well diffusion method). Conditions: MTCC 96, 24 h.
Assay type: functional

MIC [µg/mL]	Compound
7.8 (≈ 21.6 µM)	CCCCCCCCC[C@@H](O)[C@H](CO)n1cc(-c2cccc(O)c2)nn1

The compounds below were run on Pichia kudriavzevii (assay: Fungicidal activity against Candida krusei MTCC 3020 incubated for 24 hrs). Conditions: MTCC 3020, 24 h.
Assay type: functional

Compound	MFC [µg/mL]
CCCCCCCCC[C@@H](O)[C@H](CO)n1cc(-c2cccc(O)c2)nn1	31.2 (≈ 86.3 µM)

Each compound was assayed on Candida albicans (assay: Fungicidal activity against Candida albicans MTCC 3017 incubated for 24 hrs). Conditions: MTCC 3017, 24 h.
Assay type: functional

Compound	MFC [µg/mL]
CCCCCCCCC[C@@H](O)[C@H](CO)n1cc(-c2cccc(O)c2)nn1	7.8 (≈ 21.6 µM)

These compounds were tested on Escherichia coli (assay: Antibacterial activity against Escherichia coli MTCC 739 incubated for 24 hrs at 37 degC by well diffusion method). Conditions: MTCC 739, 24 h.
Assay type: functional

MIC [µg/mL]	Compound
> 250	CCCCCCCCC[C@@H](O)[C@H](CO)n1cc(-c2cccc(O)c2)nn1

What follows are compounds tested on [Candida] aaseri (assay: Antifungal activity against Candida aaseri MTCC 1962 incubated for 24 hrs at 30 degC by well diffusion method). Conditions: Yamadazyma aaseri, MTCC 1962, 24 h.
Assay type: functional

MIC [µg/mL]	Compound
7.8 (≈ 21.6 µM)	CCCCCCCCC[C@@H](O)[C@H](CO)n1cc(-c2cccc(O)c2)nn1

What follows are compounds tested on Candida albicans (assay: Fungicidal activity against Candida albicans MTCC 3958 incubated for 24 hrs). Conditions: MTCC 3958, 24 h.
Assay type: functional

Compound	MFC [µg/mL]
CCCCCCCCC[C@@H](O)[C@H](CO)n1cc(-c2cccc(O)c2)nn1	31.2 (≈ 86.3 µM)

The compounds below were run on Candida albicans (assay: Antifungal activity against Candida albicans MTCC 854 incubated for 24 hrs at 30 degC by well diffusion method). Conditions: MTCC 854, 24 h.
Assay type: functional

MIC [µg/mL]	Compound
3.9 (≈ 10.8 µM)	CCCCCCCCC[C@@H](O)[C@H](CO)n1cc(-c2cccc(O)c2)nn1

These compounds were tested on Candida albicans (assay: Induction of ROS accumulation in Candida albicans MTCC 227 sessile cells at 2 to 8 ug/ml incubated for 24 hrs by DCFH-DA dye based microplate reader analysis). Conditions: not given.
Assay type: functional, organism-based

Compound	Activity
CCCCCCCCC[C@@H](O)[C@H](CO)n1cc(-c2cccc(O)c2)nn1	Active

These compounds were tested on Candida albicans (assay: Fungicidal activity against Candida albicans MTCC 854 incubated for 24 hrs). Conditions: MTCC 854, 24 h.
Assay type: functional

Compound	MFC [µg/mL]
CCCCCCCCC[C@@H](O)[C@H](CO)n1cc(-c2cccc(O)c2)nn1	7.8 (≈ 21.6 µM)

What follows are compounds tested on Candida parapsilosis (assay: Antifungal activity against Candida parapsilosis MTCC 1744 incubated for 24 hrs at 30 degC by well diffusion method). Conditions: Lodderomyces parapsilosis, MTCC 1744, 24 h.
Assay type: functional

MIC [µg/mL]	Compound
15.6 (≈ 43.2 µM)	CCCCCCCCC[C@@H](O)[C@H](CO)n1cc(-c2cccc(O)c2)nn1

The compounds below were run on Nakaseomyces glabratus (assay: Fungicidal activity against Candida glabrata MTCC 3019 incubated for 24 hrs). Conditions: MTCC 3019, 24 h.
Assay type: functional

Compound	MFC [µg/mL]
CCCCCCCCC[C@@H](O)[C@H](CO)n1cc(-c2cccc(O)c2)nn1	7.8 (≈ 21.6 µM)

These compounds were tested on Micrococcus luteus (assay: Antibiofilm activity against Micrococcus luteus MTCC 2470 after 24 hrs by crystal violet staining based assay). Conditions: MTCC 2470, 24 h.
Assay type: functional, organism-based

IC50 [µg/mL]	Compound
2.1 (≈ 5.81 µM)	CCCCCCCCC[C@@H](O)[C@H](CO)n1cc(-c2cccc(O)c2)nn1
